Assay [1] is filed under the species Mus musculus. The assay can be described thus: Inhibition of voltage-gated calcium channel in mouse synaptoneurosomes assessed as reduction of KCl-induced calcium influx at 100 uM after 30 mins using Fura-2 AM by fluorescence assay relative to control.
The species entered for assay [2] is Mus musculus. The assay can be described thus: Inhibition of NMDA receptor in mouse synaptoneurosomes assessed as reduction of NMDA/glycine-induced calcium influx at 100 uM after 30 mins using Fura-2 AM by fluorescence assay relative to control.

Activity calls are given as the source filed them. The calls are words filed in the database; no cut-off is given here.

The term inhibition denotes the relative decrease from the control value, in per cent. Consider `Nc1cccc(CNC23CC4CC(CC(C4)C2)C3)c1`, for which the figures for the inhibition in the assay filed under Mus musculus [1] and in the assay listed under Mus musculus [2] were 30% and 48.3%, respectively.
The matching figures for `NC12CC3CC(CC(C3)C1)C2`: 2.76% and 84.6%.
The matching figures for `COc1cccc(CNC23CC4CC(CC(C4)C2)C3)c1`: 44.7% and 70.2%.
For `COCCOC(=O)C1=C(C)NC(C)=C(C(=O)OC(C)C)C1c1cccc([N+](=O)[O-])c1` (stereo not given), in the assay filed under Mus musculus [1], the inhibition came out at 100%. Also, the inhibition result in the assay filed under Mus musculus [2] is “inactive”.
The matching figures for `c1ccc(CNC23OC4C5C6CC(C7C6C4C72)C53)cc1` (stereo not given): 38.4% and 22.2%.
Take `c1ccc(CCNC23CC4CC(CC(C4)C2)C3)cc1`: the inhibition in the assay listed under Mus musculus [1] is 42%; in the assay filed under Mus musculus [2] it was 89.5%.
With `Nc1ccccc1CNC12CC3CC(CC(C3)C1)C2`, the values for the inhibition in the assay filed under Mus musculus [1] and in the assay filed under Mus musculus [2] were 37.1% and 31.3%, respectively.
As for `O=[N+]([O-])c1cccc(CNC23CC4CC(CC(C4)C2)C3)c1`, the results for the inhibition in the assay filed under Mus musculus [1] and in the assay filed under Mus musculus [2] were 14.3% and 36.6%, respectively.
As for `O=[N+]([O-])c1ccccc1CNC12CC3CC(CC(C3)C1)C2`, the inhibition in the assay filed under Mus musculus [1] came to 49.2%; in the assay listed under Mus musculus [2] it was 60.6%.
Regarding `COc1ccc(CNC23CC4CC(CC(C4)C2)C3)cc1`, the inhibition in the assay filed under Mus musculus [1] came to 71.2%; in the assay listed under Mus musculus [2], 79.2%.
Take `C[C@]12N[C@H](Cc3ccccc31)c1ccccc12`: in the assay filed under Mus musculus [1], the inhibition entry was “inactive”. For the same molecule, the inhibition in the assay listed under Mus musculus [2] stood at 100%.
In the case of `CC12CC3CC(C)(C1)CC(N)(C3)C2`, the inhibition in the assay listed under Mus musculus [1] is 5.2%; in the assay filed under Mus musculus [2], 92.5%.
On the same counts, the results for `O=[N+]([O-])c1ccc(CNC23CC4CC(CC(C4)C2)C3)cc1` are 85.7% and 74.8%.
For `c1ccc(CNC23CC4CC(CC(C4)C2)C3)cc1`, the inhibition in the assay listed under Mus musculus [1] amounted to 39.6%; in the assay listed under Mus musculus [2], 66.7%.
With `Nc1ccc(CNC23CC4CC(CC(C4)C2)C3)cc1`, the results for the inhibition in the assay filed under Mus musculus [1] and in the assay listed under Mus musculus [2] were 49.5% and 50.4%, respectively.

The values above are taken from ChEMBL document CHEMBL3621087, “Adamantane amine derivatives as dual acting NMDA receptor and voltage-gated calcium channel inhibitors for neuroprotection” (Medchemcomm, 2014).
